For this experiment, the target named is human orexin-2 receptor (Homo sapiens (Human), UniProt O43614). Nature of the experiment: Human Orexin 2 Receptor Radioligand Binding Studies ([3H]-EMPA competition). The settings on record: HEK293 cells stably expressing human orexin-2 receptor; [3H]-EMPA 5 nM; apparent Ki; read-out: OR 2 Ki.

Among the data in patent US11059828B2, “Disubstituted octahydropyrrolo[3,4-C]pyrroles as orexin receptor modulators” (Janssen Pharmaceutica NV, priority 2009, dated 2021) are Ki values, retold here.

Molecules are shown by their SMILES.

Sequence of human orexin-2 receptor (O43614 whole entry): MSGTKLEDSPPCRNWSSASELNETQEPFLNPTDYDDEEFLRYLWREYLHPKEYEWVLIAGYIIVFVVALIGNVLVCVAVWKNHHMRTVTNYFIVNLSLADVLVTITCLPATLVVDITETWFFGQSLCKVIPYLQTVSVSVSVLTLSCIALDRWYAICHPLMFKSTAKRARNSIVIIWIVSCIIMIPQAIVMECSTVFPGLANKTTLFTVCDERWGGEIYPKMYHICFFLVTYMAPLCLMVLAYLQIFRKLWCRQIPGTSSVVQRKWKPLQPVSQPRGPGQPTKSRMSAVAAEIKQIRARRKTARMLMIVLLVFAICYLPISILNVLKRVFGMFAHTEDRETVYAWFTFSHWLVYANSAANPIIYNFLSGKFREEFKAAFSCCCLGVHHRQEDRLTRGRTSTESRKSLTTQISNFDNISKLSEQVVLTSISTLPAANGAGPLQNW

On to `O=C(c1cccc(F)c1-n1nccn1)N1CC2CN(c3cnc4cc(F)c(F)cc4n3)CC2C1` (stereo not shown) [Example 244, (5-(6,7-Difluoroquinoxalin-2-yl)hexahydropyrrolo[3,4-c]pyrrol-2(1H)-yl)(3-fluoro-2-(2H-1,2,3-triazol-2-yl)phenyl)methanone], for which the Ki came to 18 nM.
